# Test results taken from ChEMBL document CHEMBL3885881, “DrugMatrix”.
# Organism: Rattus norvegicus
# Experiment: DrugMatrix - Regimen: Daily Repeat
# Type: toxicity, organism-based, Sprague-Dawley
# Set-up: regimen Daily Repeat, gender Male, age 6-8 weeks
# Settings: in vivo, iv, […], vehicle 100 % SALINE; for ALANINE AMINOTRANSFERASE / ALBUMIN / ALKALINE PHOSPHATASE / ASPARTATE AMINOTRANSFERASE / BLOOD UREA NITROGEN / CARBON DIOXIDE / CHLORIDE / CHOLESTEROL / CREATINE PHOSPHOKINASE / CREATININE / GLUCOSE / LACTATE DEHYDROGENASE / LIPASE / PHOSPHORUS / POTASSIUM / SODIUM / TOTAL BILIRUBIN / TOTAL PROTEIN / URIC ACID: tissue Plasma; for ABSOLUTE BASOPHIL / ABSOLUTE EOSINOPHIL / ABSOLUTE LYMPHOCYTE / ABSOLUTE MONOCYTE / ABSOLUTE SEGMENTED NEUTROPHIL / BASOPHIL / EOSINOPHIL / ERYTHROCYTE COUNT / HEMATOCRIT / HEMOGLOBIN / LEUKOCYTE COUNT / LYMPHOCYTE / MEAN CORPUSCULAR HEMOGLOBIN / MEAN CORPUSCULAR HEMOGLOBIN CONCENTRATION / MEAN CORPUSCULAR VOLUME / MONOCYTE / NEUTROPHIL / NUCLEATED RED BLOOD CELLS / PLATELET COUNT: tissue Blood
# [1] = 72 h, dose 0.24 mg/Kg, dose level Low, time 3 day
# [2] = 72 h, dose 2.5 mg/Kg, dose level High, time 3 day
# [3] = 120 h, dose 0.24 mg/Kg, dose level Low, time 5 day
# [4] = 120 h, dose 2.5 mg/Kg, dose level High, time 5 day
compound,measurement,setting,value
CC[C@@]1(O)C(=O)OCc2c1cc1n(c2=O)Cc2cc3ccccc3nc2-1 [CAMPTOTHECIN],ALANINE AMINOTRANSFERASE,[1],60 u/L
same,ALBUMIN,[1],4.3 G/DL
same,ALKALINE PHOSPHATASE,[1],408 u/L
same,ASPARTATE AMINOTRANSFERASE,[1],104.67 u/L
same,BLOOD UREA NITROGEN,[1],12.67 mg/dL
same,CARBON DIOXIDE,[1],33.33 mmol/L
same,CHLORIDE,[1],101.33 MEQ/L
same,CHOLESTEROL,[1],75 mg/dL
same,CREATINE PHOSPHOKINASE,[1],727.67 u/L
same,CREATININE,[1],0.15 mg/dL
same,GLUCOSE,[1],138.33 mg/dL
same,LACTATE DEHYDROGENASE,[1],388 u/L
same,LIPASE,[1],11 u/L
same,PHOSPHORUS,[1],11.93 mg/dL
same,POTASSIUM,[1],6.3 MEQ/L
same,SODIUM,[1],145.33 MEQ/L
same,TOTAL BILIRUBIN,[1],0.17 mg/dL
same,TOTAL PROTEIN,[1],5.93 G/DL
same,URIC ACID,[1],1.33 mg/dL
same,ALANINE AMINOTRANSFERASE,[2],37.33 u/L
same,ALBUMIN,[2],4.2 G/DL
same,ALKALINE PHOSPHATASE,[2],430.33 u/L
same,ASPARTATE AMINOTRANSFERASE,[2],79.33 u/L
same,BLOOD UREA NITROGEN,[2],13 mg/dL
same,CARBON DIOXIDE,[2],33 mmol/L
same,CHLORIDE,[2],101.33 MEQ/L
same,CHOLESTEROL,[2],73.67 mg/dL
same,CREATINE PHOSPHOKINASE,[2],318.33 u/L
same,CREATININE,[2],0.16 mg/dL
same,GLUCOSE,[2],153.33 mg/dL
same,LACTATE DEHYDROGENASE,[2],136.33 u/L
same,LIPASE,[2],10.33 u/L
same,PHOSPHORUS,[2],10.83 mg/dL
same,POTASSIUM,[2],5.76 MEQ/L
same,SODIUM,[2],142.73 MEQ/L
same,TOTAL BILIRUBIN,[2],0.17 mg/dL
same,TOTAL PROTEIN,[2],6.1 G/DL
same,URIC ACID,[2],1.63 mg/dL
same,ABSOLUTE BASOPHIL,[3],0 CELLS/uL
same,ABSOLUTE EOSINOPHIL,[3],45.33 CELLS/uL
same,ABSOLUTE LYMPHOCYTE,[3],11856.67 CELLS/uL
same,ABSOLUTE MONOCYTE,[3],131.67 CELLS/uL
same,ABSOLUTE SEGMENTED NEUTROPHIL,[3],1233 CELLS/uL
same,BASOPHIL,[3],0%
same,EOSINOPHIL,[3],0.33%
same,ERYTHROCYTE COUNT,[3],5.71 x10E6/uL
same,HEMATOCRIT,[3],35.9%
same,HEMOGLOBIN,[3],14.03 G/DL
same,LEUKOCYTE COUNT,[3],13.27 x10E3/uL
same,LYMPHOCYTE,[3],89.33%
same,MEAN CORPUSCULAR HEMOGLOBIN,[3],24.57 pg
same,MEAN CORPUSCULAR HEMOGLOBIN CONCENTRATION,[3],39.07 G/DL
same,MEAN CORPUSCULAR VOLUME,[3],62.87 fL
same,MONOCYTE,[3],1%
same,NEUTROPHIL,[3],9.33%
same,NUCLEATED RED BLOOD CELLS,[3],0 /100WBC
same,PLATELET COUNT,[3],1215 x10E3/uL
same,ABSOLUTE BASOPHIL,[4],0 CELLS/uL
same,ABSOLUTE EOSINOPHIL,[4],0 CELLS/uL
same,ABSOLUTE LYMPHOCYTE,[4],7405.33 CELLS/uL
same,ABSOLUTE MONOCYTE,[4],102.67 CELLS/uL
same,ABSOLUTE SEGMENTED NEUTROPHIL,[4],225.33 CELLS/uL
same,BASOPHIL,[4],0%
same,EOSINOPHIL,[4],0%
same,ERYTHROCYTE COUNT,[4],5.35 x10E6/uL
same,HEMATOCRIT,[4],31.67%
same,HEMOGLOBIN,[4],12.13 G/DL
same,LEUKOCYTE COUNT,[4],7.73 x10E3/uL
same,LYMPHOCYTE,[4],95.67%
same,MEAN CORPUSCULAR HEMOGLOBIN,[4],22.77 pg
same,MEAN CORPUSCULAR HEMOGLOBIN CONCENTRATION,[4],38.33 G/DL
same,MEAN CORPUSCULAR VOLUME,[4],59.3 fL
same,MONOCYTE,[4],1.33%
same,NEUTROPHIL,[4],3%
same,NUCLEATED RED BLOOD CELLS,[4],0 /100WBC
same,PLATELET COUNT,[4],1318.33 x10E3/uL
same,ALANINE AMINOTRANSFERASE,[3],43.33 u/L
same,ALBUMIN,[3],4.03 G/DL
same,ALKALINE PHOSPHATASE,[3],352 u/L
same,ASPARTATE AMINOTRANSFERASE,[3],70 u/L
same,BLOOD UREA NITROGEN,[3],14.67 mg/dL
same,CARBON DIOXIDE,[3],29.33 mmol/L
same,CHLORIDE,[3],102 MEQ/L
same,CHOLESTEROL,[3],64.33 mg/dL
same,CREATINE PHOSPHOKINASE,[3],241.67 u/L
same,CREATININE,[3],0.18 mg/dL
same,GLUCOSE,[3],201.67 mg/dL
same,LACTATE DEHYDROGENASE,[3],147.33 u/L
same,LIPASE,[3],10.33 u/L
same,PHOSPHORUS,[3],11.03 mg/dL
same,POTASSIUM,[3],5.31 MEQ/L
same,SODIUM,[3],141.3 MEQ/L
same,TOTAL BILIRUBIN,[3],0.2 mg/dL
same,TOTAL PROTEIN,[3],5.93 G/DL
same,URIC ACID,[3],1.33 mg/dL
same,ALANINE AMINOTRANSFERASE,[4],42.67 u/L
same,ALBUMIN,[4],4.03 G/DL
same,ALKALINE PHOSPHATASE,[4],247 u/L
same,ASPARTATE AMINOTRANSFERASE,[4],101 u/L
same,BLOOD UREA NITROGEN,[4],17 mg/dL
same,CARBON DIOXIDE,[4],22.33 mmol/L
same,CHLORIDE,[4],103.33 MEQ/L
same,CHOLESTEROL,[4],56 mg/dL
same,CREATINE PHOSPHOKINASE,[4],674.67 u/L
same,CREATININE,[4],0.2 mg/dL
same,GLUCOSE,[4],184 mg/dL
same,LACTATE DEHYDROGENASE,[4],581 u/L
same,LIPASE,[4],10.33 u/L
same,PHOSPHORUS,[4],12.4 mg/dL
same,POTASSIUM,[4],6.08 MEQ/L
same,SODIUM,[4],142.1 MEQ/L
same,TOTAL BILIRUBIN,[4],0.13 mg/dL
same,TOTAL PROTEIN,[4],6.03 G/DL
same,URIC ACID,[4],1.8 mg/dL
